Laboratory results published in US11241424B2, “Pharmaceutical formulations for sustained release of sebacoyl dinalbuphine ester” (LUMOSA THERAPEUTICS CO., LTD., priority 2015, dated 2022).
Several values for one entry are separate records, joined by “and”; a condition that tells them apart may be missing. Equal entries are not always repeated.

How the values were obtained:
[1] = tested on: postoperative pain following hemorrhoidectomy; experiment: Phase 2/3 clinical study of F8 formulation; assay type: in vivo, human
Procedure: The subjects were divided into two groups, of which Group 1 (n=103) was treated with a single dose of intramuscular SDE 150 mg (2 mL), and Group 2 (n=106) was treated with a single dose of intramuscular placebo (2 mL). All subjects were given a single dose of SDE or placebo via intramuscular injection 24±12 hours before hemorrhoid surgery. The subjects were allowed to take rescue medication and monitored for 7 days after dosing. Statistical analyses were performed on the data to compare the two groups.
The primary efficacy endpoint was pain assessment calculated as the area under the curve of VAS pain intensity scores through 48 hours after surgery. The secondary efficacy endpoints included pain assessment measured with VAS; time from the end of operation to the first rescue medication dosing; the consumption of oral ketorolac. Pain intensity was assessed right before the first use of PCA ketorolac, and at 1±0.1, 2±0.1, 3±0.1, 4±0.25, 8±0.5, 12±0.5, 16±0.5, 20±0.5, 24±1, 28±1, 32±2, 36±2, 40±2, 44±2, 48±2 hours after the surgery, and was assessed during Days 3-7 in the morning and evening, as well as during special events such as bowel movements.
For the calculation of AUC, data were imputed with the use of the windowed worst observation carried forward plus last observation carried forward method. For subjects who used rescue medication for pain relief, their VAS scores recorded within the window of ketorolac medication (6 hours, which is one half-life of ketorolac) were replaced by the “worst” observation (i.e., the highest score before taking ketorolac), hereafter called “adjusted VAS scores.”
The AUC0-24 and AUC0-48 of the mean adjusted VAS scores of SDE and placebo groups were calculated by using the trapezoidal method and summarized in Table 10.

[2] = Solubility test of SDE in solvents and solvent systems (UPLC); assay type: physicochemical
Procedure: As used herein, the term “solubility” means the maximum amount of a solute (e.g., an active ingredient or a prodrug thereof) that can be dissolved in a given amount of a solvent at a particular temperature. Unless otherwise specified, the solubilities presented herein are at room temperature (e.g., 25-28° C.). The term “saturated concentration” refers to the concentration at which no more of a solute will dissolve in a solvent and additional amounts of solute will appear as a separate phase (e.g., as a precipitate).
Each of the solvent systems was prepared by mixing each component with the exact volume (pi) corresponding to the w/w % listed in Table 15. About 500 μl of each of the solvent systems was prepared and was vortexed for 3 minutes or more to fully mix each component. An appropriate amount of SDE was added into 250 μl of each of the solvent systems and the resulting mixtures were sonicated for 10 minutes. If the previously added SDE was completely dissolved, an additional 4-8 mg of SDE was added into the mixture and which was then sonicated for another 10 minutes. The step of adding 4-8 mg of SDE was repeated until the mixture was saturated to show undissolved SDE precipitates. All of the mixtures were sonicated for at least 30 minutes, and then centrifuged to collect the supernatants. The supernatants were treated with acetonitrile and then subjected to UPLC analysis.
Five groups of solvent systems containing 40% by weight of sesame oil were respectively prepared according to the method of Example 6 by using the compositions as listed in Table 17; and among them, five different alcohols (i.e., ethanol, 1-propanol, 2-propanol, 1-butanol, and tert-butanol) were used in the five groups. SDE was dissolved in each of the solvent systems till saturation by following the method of Example 6. The SDE concentrations in the supernatants collected from each of the samples (i.e. the saturated SDE concentration, or SDE solubility) were respectively determined by UPLC using the method of Example 6.

[3] = Phase I clinical trial of F8 formulation (safety, tolerability, pharmacokinetics); conditions: for AUC0-inf / AUC0-t / Cmax / T1/2 / Tmax: plasma nalbuphine, mean
Procedure: It was designed to evaluate safety and local tolerability and assess the pharmacokinetics of SDE following single dose intramuscular injection. The study enrolled a total of 28 healthy male subjects. All subjects were randomized to 5 cohorts. Cohort 1 (N=4) was treated with single dose Nubain® 17 mg (0.85 mL) via intramuscular injection. Cohorts 2-5 (N=6) were either treated with placebo (N=2) or treated with single dose SDE (N=4) at 75 mg (1 mL), 100 mg (1.33 mL), 125 mg (1.67 mL), and 150 mg (2 mL), respectively.
Heparinized blood samples were obtained before and at various time points following single dose administration of study medication. […] The subsequent analysis of the data involved non-compartmental pharmacokinetics analysis, i.e., Cmax, Tmax, AUC0-t, AUC0-inf, and T1/2.

[4] = Bioavailability study of F8 formulation and Bain (whole blood nalbuphine); assay type: in vivo, human; conditions: mean, SDE 150 mg single IM as F8 formulation
Procedure: A total of twelve subjects completed the crossover study. […] There was a minimum 5-day washout period between period I and period II. In period I, the blood samples were drawn prior to the dosing, and 0.083, 0.25, 0.5, 1, 1.5, 2, 3, 4, 6, 8, 12, and 24 hours after dosing.

[5] = after i.v. dosing in dogs; cited from earlier work
[6] = Plasma nalbuphine after subcutaneous nalbuphine in dogs; assay type: in vivo
[7] = 48 hours post-operation, SDE 150 mg IM (F8)
[8] = mITT, SDE 150 mg IM (F8) 24±12 hours before hemorrhoid surgery
[9] = SDE 75 mg single IM as F8 formulation
[10] = SDE 100 mg single IM as F8 formulation
[11] = SDE 125 mg single IM as F8 formulation
[12] = SDE 150 mg single IM as F8 formulation
[13] = dog, plasma, subcutaneous, 0.5 mg/kg

O=C(CCCCCCCCC(=O)Oc1ccc2c3c1O[C@H]1[C@@H](O)CC[C@@]4(O)[C@@H](C2)N(CC2CCC2)CC[C@]314)Oc1ccc2c3c1O[C@H]1[C@@H](O)CC[C@@]4(O)[C@@H](C2)N(CC2CCC2)CC[C@]314 [SDE, sebacoyl dinalbuphine ester]
AUC0-final of adjusted VAS scores, Mean ± SD ([1]; 0 hr to 7 days after hemorrhoid operation, mITT, SDE 150 mg IM (F8)): 630.79±350.90 | consumption of oral ketorolac, Mean [1, 7]: 51.36 mg | consumption of oral ketorolac, Median [1, 7]: 40.00 mg | time for the first use of post-operational analgesic, Mean (SD) ([1]; mITT, SDE 150 mg IM (F8)): 12.57 hour and 12.57 (1.68) hour | AUC0-24 of adjusted VAS pain intensity scores, Mean ± SD [1, 8]: 109.42 ± 55.04 | AUC0-48 of adjusted VAS pain intensity scores, Mean ± SD [1, 8]: 209.93±111.26 | adjusted VAS score compared with placebo ([1]; throughout the 7 days after the hemorrhoid operation): lower than the placebo group | effect of C2-C4 alcohol on the solubility of SDE (FIG. 11) ([2]; 2.5-30% by weight of the alcohol in solvent system with 40% sesame oil): significantly increased | solubility of SDE in the formulations ([2]; 10% by weight of tert-Butanol replacing benzyl benzoate): about 210 mg/mL | increase of the solubility of SDE in the solvent systems ([2]; 10% of alkyl alcohol added): at least 30% | Solubility of SDE in the solvent ([2]; castor oil): about 13 mg/mL | Solubility of SDE in the solvent ([2]; cottonseed oil): about 6 mg/mL | solubility of SDE in ethanol, 1-propanol, or t-butanol ([2]; each alcohol alone): 10000 to 30000 µg/mL | solubility of SDE when added to the mixture of benzyl benzoate and sesame oil ([2]; weight ratio of benzyl benzoate to sesame oil about 1.1): about 70 mg/mL | solubility of SDE when added to the mixture of benzyl benzoate and sesame oil ([2]; weight ratio of benzyl benzoate to sesame oil about 1.5): about 150 mg/mL | solubility of SDE when added to the mixture of benzyl benzoate and sesame oil ([2]; weight ratio of benzyl benzoate to sesame oil about 2.3): about 200 mg/mL | solubility of SDE when added to the mixture of benzyl benzoate and sesame oil ([2]; weight ratio of benzyl benzoate to sesame oil about 9): greater than 300 mg/mL | solubility of SDE in the formulations ([2]; without alkyl alcohol): about 160 mg/mL | duration of action ([3]; cohort receiving 125 mg SDE, from plasma nalbuphine above 3 ng/mL): about 6.5 days | duration of action ([3]; cohort receiving 150 mg SDE, from plasma nalbuphine above 3 or 1 ng/mL): 6 to 12 days | tolerability ([3]; escalating single IM doses of SDE up to 150 mg): well tolerated | AUC0-inf [3, 9]: 692.27 ng·h/mL | AUC0-t [3, 9]: 647.84 ng·h/mL | Cmax [3, 9]: 5.45 ng/mL | T1/2 [3, 9]: 55.75 h | Tmax [3, 9]: 66 h | AUC0-inf [3, 10]: 936.17 ng·h/mL | AUC0-t [3, 10]: 811.34 ng·h/mL | Cmax [3, 10]: 5.65 ng/mL | T1/2 [3, 10]: 85.45 h | Tmax [3, 10]: 66 h | AUC0-inf [3, 11]: 1219.71 ng·h/mL | AUC0-t [3, 11]: 1047.45 ng·h/mL | Cmax [3, 11]: 7.31 ng/mL | T1/2 [3, 11]: 89.83 h | Tmax [3, 11]: 45 h | AUC0-inf [3, 12]: 1353.16 ng·h/mL | AUC0-t [3, 12]: 1214.98 ng·h/mL | Cmax [3, 12]: 9.81 ng/mL | T1/2 [3, 12]: 73.4 h | Tmax [3, 12]: 60 h | difference between SDE and placebo groups in number of AEs, subjects with AEs, severity and relatedness ([3]; single IM dose 75-150 mg): No significant difference | severity of adverse events (AEs) ([3]; single IM dose, healthy male subjects): mild | AUC0-inf [4]: 1832.0 ng·h/mL | AUC0-t [4]: 1687.4 ng·h/mL | Cmax [4]: 15.40 ng/mL | MRT [4]: 149.38 h | T1/2 [4]: 83.16 h | Tmax [4]: 64.00 h

Oc1ccc2c3c1O[C@H]1[C@@H](O)CC[C@@]4(O)[C@@H](C2)N(CC2CCC2)CC[C@]314 [nalbuphine]
elimination half-life of nalbuphine [5]: about 1.2 hour | concentration at 3 h [6, 13]: 9.9 ng/mL | concentration at 4 h [6, 13]: 5.2 ng/mL | effective plasma concentration of nalbuphine for analgesia in dog ([6]; inferred from 4 h plasma level and reported 4 h analgesia): about 5 ng/mL
